Data published in ChEMBL document CHEMBL1201862, “PubChem BioAssay data set” (2004).
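Interpolation was linear, between the two tested concentrations surrounding the appropriate level; five concentrations were tested over 48 hours in 96-well plates. GI50 = concentration required for 50% inhibition of growth.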 The source made the active and inactive calls. No stated cut-off is given here; in the data, active = GI50 up to about 1.1 µM and inactive = higher.

What was measured:
Test in all cases: NCI tumour cell line growth inhibition, 48 h
786-0 = tested on: 786-0
A498 = tested on: A498
A549 = tested on: A549
ACHN = tested on: ACHN
BT-549 = tested on: BT-549
CAKI-1 = tested on: CAKI-1
CCRF-CEM = tested on: CCRF-CEM
COLO 205 = tested on: COLO 205
DU-145 = tested on: DU-145
EKVX = tested on: EKVX
HCC 2998 = tested on: HCC 2998
HCT-116 = tested on: HCT-116
HCT-15 = tested on: HCT-15
HL-60 = tested on: HL-60
HOP-62 = tested on: HOP-62
HOP-92 = tested on: HOP-92
HT-29 = tested on: HT-29
Hs-578T = tested on: Hs-578T
IGROV-1 = tested on: IGROV-1
K562 = tested on: K562
KM12 = tested on: KM12
LOX IMVI = tested on: LOX IMVI
M14 = tested on: M14
MCF7 = tested on: MCF7
MDA-MB-231 = tested on: MDA-MB-231
MDA-MB-435 = tested on: MDA-MB-435
MDA-N = tested on: MDA-N
MOLT-4 = tested on: MOLT-4
Malme-3M = tested on: Malme-3M
NCI-H226 = tested on: NCI-H226
NCI-H23 = tested on: NCI-H23
NCI-H460 = tested on: NCI-H460
NCI-H522 = tested on: NCI-H522
NCI/ADR-RES = tested on: NCI/ADR-RES
OVCAR-3 = tested on: OVCAR-3
OVCAR-4 = tested on: OVCAR-4
OVCAR-5 = tested on: OVCAR-5
OVCAR-8 = tested on: OVCAR-8
PC-3 = tested on: PC-3
RPMI-8226 = tested on: RPMI-8226
RXF 393 = tested on: RXF 393
SF-268 = tested on: SF-268
SF-295 = tested on: SF-295
SF-539 = tested on: SF-539
SK-MEL-28 = tested on: SK-MEL-28
SK-MEL-2 = tested on: SK-MEL-2
SK-MEL-5 = tested on: SK-MEL-5
SK-OV-3 = tested on: SK-OV-3
SN12C = tested on: SN12C
SNB-19 = tested on: SNB-19
SNB-75 = tested on: SNB-75
SR = tested on: SR
SW-620 = tested on: SW-620
T47D = tested on: T47D
TK-10 = tested on: TK-10
U-251 = tested on: U-251
UACC-257 = tested on: UACC-257
UACC-62 = tested on: UACC-62
UO-31 = tested on: UO-31
KM-20L2 = tested on: KM-20L2

Measured: GI50

CCOc1cc(NC(C)=O)ccc1C(=O)NNC(=O)c1ccccc1OC(C)=O
active: MOLT-4 0.995 µM | SR 1.05 µM
inactive: 786-0 4.53 µM | A498 16.1 µM | A549 6.76 µM | ACHN 3.79 µM | BT-549 19.5 µM | CAKI-1 3.21 µM | CCRF-CEM 4.22 µM | COLO 205 21.5 µM | DU-145 8.28 µM | EKVX 5.18 µM | HCC 2998 4.95 µM | HCT-116 3.59 µM | HL-60 4.28 µM | HOP-62 8.61 µM | HOP-92 29.9 µM | HT-29 34 µM | Hs-578T > 52 µM | IGROV-1 3.03 µM | K562 3.02 µM | KM12 7.08 µM | LOX IMVI 5.45 µM | M14 7.18 µM | MCF7 6.07 µM | MDA-MB-231 4.42 µM | MDA-MB-435 15 µM | MDA-N 12.5 µM | Malme-3M 21.7 µM | NCI-H226 5.19 µM | NCI-H23 18 µM | NCI-H460 4.04 µM | NCI-H522 5.83 µM | NCI/ADR-RES 17.7 µM | OVCAR-3 3.24 µM | OVCAR-4 4.32 µM | OVCAR-5 10.2 µM | OVCAR-8 6.3 µM | PC-3 11.1 µM | RPMI-8226 3 µM | RXF 393 3.41 µM | SF-268 7.24 µM | SF-295 8.36 µM | SF-539 12.5 µM | SK-MEL-28 21.5 µM | SK-MEL-2 24.3 µM | SK-MEL-5 5.78 µM | SK-OV-3 11.8 µM | SN12C 5.24 µM | SNB-19 21.9 µM | SNB-75 8.05 µM | SW-620 4.01 µM | T47D 8.55 µM | TK-10 1.5 µM | U-251 4.69 µM | UACC-257 4.92 µM | UACC-62 8.36 µM | UO-31 3.86 µM
4.37 µM: HCT-15

COc1cc2c(cc1OC)C1(c3ccccc3)CN(C2)Cc2cc(OC)c(OC)cc21
24.3 µM: HCT-15
inactive: 786-0 31.6 µM | A498 35.2 µM | A549 46.3 µM | ACHN 54.1 µM | BT-549 29.8 µM | CAKI-1 40 µM | CCRF-CEM 15.6 µM | COLO 205 17.1 µM | DU-145 33.7 µM | EKVX 55.5 µM | HCC 2998 21.8 µM | HCT-116 24.9 µM | HL-60 19.3 µM | HOP-62 40.6 µM | HOP-92 32.6 µM | HT-29 29 µM | Hs-578T 27.5 µM | IGROV-1 35.2 µM | K562 29.1 µM | KM12 30.8 µM | LOX IMVI 34.8 µM | M14 23.9 µM | MCF7 33.3 µM | MDA-MB-231 24.3 µM | MDA-MB-435 14.5 µM | MDA-N > 100 µM | MOLT-4 25.5 µM | Malme-3M 36.4 µM | NCI-H226 26.7 µM | NCI-H23 24.5 µM | NCI-H460 30.2 µM | NCI-H522 26.2 µM | NCI/ADR-RES 25.4 µM | OVCAR-3 54.6 µM | OVCAR-4 23.3 µM | OVCAR-5 35.6 µM | OVCAR-8 40.6 µM | PC-3 31.3 µM | RPMI-8226 26 µM | RXF 393 22.8 µM | SF-268 49.9 µM | SF-295 32.6 µM | SF-539 19.3 µM | SK-MEL-28 > 100 µM | SK-MEL-2 25.7 µM | SK-MEL-5 18.6 µM | SK-OV-3 45.8 µM | SN12C > 100 µM | SNB-19 44.5 µM | SNB-75 27.9 µM | SR 5.3 µM | SW-620 33.6 µM | T47D 35.6 µM | TK-10 44.7 µM | U-251 22.2 µM | UACC-257 40.2 µM | UACC-62 32.3 µM | UO-31 80.9 µM

O=C1C=C[C@@]23C[C@@H](NC4=C2C2=NCCc5c[nH]c(c52)C4=O)SC3=C1 [1-DEBROMODISCORHABDIN B]
inactive: CAKI-1 17.7 µM | CCRF-CEM 2.86 µM | COLO 205 1.55 µM | HCT-116 1.75 µM | HL-60 1.67 µM | HT-29 2.22 µM | KM-20L2 3.01 µM | KM12 6.43 µM | MDA-MB-435 1.63 µM | MDA-N 1.73 µM | MOLT-4 1.99 µM | Malme-3M 1.25 µM | NCI-H226 14.6 µM | NCI-H522 1.69 µM | SK-OV-3 18.7 µM | SNB-19 16.3 µM | TK-10 14.6 µM | UO-31 9.35 µM
